The target in one experiment is T1, sst2 (Homo sapiens, UniProt P30874).
T1 construct: expressed in transfected cells; host or cells: HEK-293, transient
The experiment is described as follows: cAMP Responsive Element-Luciferase reporter gene assay, sst2-monotransfected HEK-293 cells. Format: cell-based. The conditions noted are these: read-out: IC50 value of cAMP inhibition. On the procedure:
(§1) A cAMP Responsive Element-Luciferase reporter gene assay in HEK-293 cells was used in this assay, wherein said HEK-293 cells were transiently transfected with D2 and/or sst2 cDNA. […] In sst2-monotransfected cells, the IC50 value of cAMP inhibition of Example 1 was 0.04 nM.
(In general: A reporter such as luciferase makes a cellular process visible.)

The next experiment deals with T2, hsst3 (Homo sapiens, UniProt P32745).
T2 construct: expressed in transfected cells
The experiment is described as follows: Somatostatin receptor radioligand binding assay, hsst3. In short, it runs like this: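 Membranes from CHO-K1 cells stably transfected with each human SSTR subtype, incubated 90 min at 25 °C with 0.05 nM [125I-Tyr11]SS-14 in 50 mM HEPES pH 7.4 with BSA, MgCl2 and protease inhibitors; filtration read-out. Nonspecific binding with 1000 nM SS-14; Ki values reported.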

The target of another experiment is T3, D2 (Homo sapiens, UniProt P14416).
T3 construct: expressed in transfected cells; host or cells: HEK-293, transient
The experiment is described as follows: cAMP Responsive Element-Luciferase reporter gene assay, D2-monotransfected HEK-293 cells. Format: cell-based. To be noted: read-out: IC50 value of cAMP inhibition. On the procedure: as §1

Another experiment addresses T4, hUTII (Homo sapiens, UniProt Q9UKP6).
T4 sequence (Q9UKP6 1-389): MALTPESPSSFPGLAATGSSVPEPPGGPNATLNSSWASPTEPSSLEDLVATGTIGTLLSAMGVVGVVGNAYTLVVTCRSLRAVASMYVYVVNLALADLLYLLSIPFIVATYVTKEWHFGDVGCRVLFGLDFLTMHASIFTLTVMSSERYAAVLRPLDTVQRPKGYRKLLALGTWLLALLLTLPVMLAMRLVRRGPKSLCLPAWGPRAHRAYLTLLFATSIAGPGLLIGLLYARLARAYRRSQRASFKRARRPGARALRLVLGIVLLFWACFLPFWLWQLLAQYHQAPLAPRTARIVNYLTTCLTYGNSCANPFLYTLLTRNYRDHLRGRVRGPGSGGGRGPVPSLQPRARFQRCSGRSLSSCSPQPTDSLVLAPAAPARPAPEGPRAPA
As to the kind of experiment: hUTII inhibition constant. Format: binding. The conditions noted are these: read-out: hUTII Ki. Here is the method:
Using the discussed assays, the inhibition constants (Ki) for the five human somatostatin receptors (hSSTR1-hSSTR5) and the dopamine-2 receptor (hUTII and hDA2) were measured for the exemplified somatostatin-dopamine conjugates, as follows: […]

T3 sequence (P14416 whole entry): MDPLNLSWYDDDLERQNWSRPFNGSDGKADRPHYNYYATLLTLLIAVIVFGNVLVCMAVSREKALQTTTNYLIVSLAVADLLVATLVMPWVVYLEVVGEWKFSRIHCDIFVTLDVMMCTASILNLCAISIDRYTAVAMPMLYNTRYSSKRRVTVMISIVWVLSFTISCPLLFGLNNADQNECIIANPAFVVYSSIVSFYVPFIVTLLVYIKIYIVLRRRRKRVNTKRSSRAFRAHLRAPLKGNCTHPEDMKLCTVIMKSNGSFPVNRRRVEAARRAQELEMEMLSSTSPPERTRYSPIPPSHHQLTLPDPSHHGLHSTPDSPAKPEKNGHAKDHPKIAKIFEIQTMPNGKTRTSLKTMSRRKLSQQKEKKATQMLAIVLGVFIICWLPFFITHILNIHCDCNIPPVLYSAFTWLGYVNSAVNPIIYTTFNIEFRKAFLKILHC
T2 sequence (P32745 whole entry): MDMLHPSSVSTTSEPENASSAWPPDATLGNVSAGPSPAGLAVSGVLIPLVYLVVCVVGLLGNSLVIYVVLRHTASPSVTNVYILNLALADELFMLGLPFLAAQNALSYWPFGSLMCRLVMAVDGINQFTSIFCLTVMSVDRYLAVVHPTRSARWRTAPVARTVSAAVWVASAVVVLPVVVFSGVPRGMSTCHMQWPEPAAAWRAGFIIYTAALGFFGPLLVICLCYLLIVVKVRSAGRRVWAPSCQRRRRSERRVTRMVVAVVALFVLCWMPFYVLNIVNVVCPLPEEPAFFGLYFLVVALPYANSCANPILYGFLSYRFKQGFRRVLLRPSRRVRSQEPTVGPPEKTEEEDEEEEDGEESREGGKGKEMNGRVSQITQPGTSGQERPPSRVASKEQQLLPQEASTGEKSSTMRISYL
T1 sequence (P30874 whole entry): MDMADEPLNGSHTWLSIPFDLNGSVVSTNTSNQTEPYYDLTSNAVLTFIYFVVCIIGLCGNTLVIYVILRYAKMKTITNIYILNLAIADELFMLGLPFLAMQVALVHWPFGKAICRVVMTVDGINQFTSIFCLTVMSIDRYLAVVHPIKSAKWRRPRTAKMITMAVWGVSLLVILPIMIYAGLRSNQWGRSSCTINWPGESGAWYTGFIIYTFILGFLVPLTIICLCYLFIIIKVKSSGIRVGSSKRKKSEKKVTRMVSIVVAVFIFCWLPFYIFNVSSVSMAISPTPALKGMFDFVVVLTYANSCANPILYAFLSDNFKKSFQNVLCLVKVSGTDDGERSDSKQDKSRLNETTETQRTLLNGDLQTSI

On to `CCCN1C[C@H](CSCC(=O)NCCCC[C@@H](NC(=O)CSC[C@@H]2C[C@@H]3c4cccc5[nH]cc(c45)C[C@H]3N(CCC)C2)C(=O)N[C@H]2CSSC[C@@H](C(=O)N[C@H](C(N)=O)[C@@H](C)O)NC(=O)[C@H](CC)NC(=O)[C@H](CCCCN)NC(=O)[C@@H](Cc3c[nH]c4ccccc34)NC(=O)[C@H](Cc3ccc(O)cc3)NC2=O)C[C@@H]2c3cccc4[nH]cc(c34)C[C@H]21` [Example 1, Dop2-DLys(Dop2)-cyclo[Cys-Tyr-DTrp-Lys-Abu-Cys]-Thr-NH2], for which the IC50 (commonly the concentration that gives 50% inhibition) on sst2 is 0.04 nM; at D2 it was 0.02 nM. Besides, the Ki (in general, a measure of affinity in units of concentration, obtained from inhibition or displacement) at hsst3 came out at 160 nM; at hUTII, 509 nM.
